Reference: patent US7312237B2, “Combination of epothilone analogs and chemotherapeutic agents for the treatment of prolilferative diseases” (Bristol-Myers Squibb Co., priority 2001, dated 2007)
pIC50: −log10 of the molar value.

Key:
[1] = system: tubulin isolated from calf brain; experiment: Tubulin polymerization assay; type: biochemical
[2] = system: HCT116/VM46 human colon carcinoma; experiment: in vivo
Source text: (§1) The following human tumors were used: A2780 ovarian, A2780Tax ovarian (established from cells obtained from Dr. Antonio Fojo, Medicine Branch, NCI, Bethesda, Md.), HCT116/VM46 colon, Pat-7 ovarian (established from a tumor biopsy provided by Dr. Thomas Hamilton, Fox Chase Cancer Center, Philadelphia, Pa.) from a patient who had developed resistance to TAXOL®). The murine fibrosarcoma M5076 was also employed.
(§2) The following tumors were passaged in the indicated host strain of mouse: murine M5076 fibrosarcoma (M5076) in C57Bl/6 mice; human A2780 and Pat-7 ovarian carcinomas, HCT116, HCT116/VM46 and LS174T colon carcinoma, Pat-21 breast carcinoma in nude mice. Tumor passage occurred biweekly for murine tumors and approximately every two to eight weeks for the various human tumor lines. With regard to efficacy testing, M5076 tumors were implanted in (C57Bl/6×DBA/2)F1 hybrid mice, and human tumors were implanted in nude mice. All tumor implants for efficacy testing were subcutaneous (sc).
(§3) The required number of animals needed to detect a meaningful response were pooled at the start of the experiment and each was given a subcutaneous implant of a tumor fragment (·50 mg) with a 13-gauge trocar. For treatment of early-stage tumors, the animals were again pooled before distribution to the various treatment and control groups. For treatment of animals with advanced-stage disease, tumors were allowed to grow to the predetermined size window (tumors outside the range were excluded) and animals were evenly distributed to various treatment and control groups. Treatment of each animal was based on individual body weight. Treated animals were checked daily for treatment related toxicity/mortality. Each group of animals was weighed before the initiation of treatment (Wt1) and then again following the last treatment dose (Wt2). The difference in body weight (Wt2−Wt1) provides a measure of treatment-related toxicity.
(§4) Tumor weights (mg) were estimated from the formula: Tumor weight=(length×width^2)÷2
Antitumor activity was evaluated at the maximum tolerated dose (MTD) which is defined as the dose level immediately […] which excessive toxicity (i.e. more than one death) occurred. […] When death occurs, the day of death was recorded.
Tumor response end-point was expressed in terms of tumor growth delay (T-C value), defined as the difference in time (days) required for the treated tumors (T) to reach a predetermined target size compared to those of the control group (C).
To estimate tumor cell kill, the tumor volume doubling time was first calculated with the formula:
TVDT=Median time (days) for control tumors to reach target size−Median time (days) for control tumors to reach half the target size
HCT116/VM46 is an MDR-resistant colon carcinoma developed from the sensitive HCT116 parent line.

[3] = system: Pat-7 human ovarian carcinoma; experiment: In vivo antitumor testing, Pat-7 in nude mice
Method: (§5) All tumor implants for efficacy testing were subcutaneous (sc).
(§6) The MTD was frequently equivalent to OD. When death occurs, the day of death was recorded.
(§7) And, Log cell kill=T−C÷(3.32×TVDT)
This tumor model was established from a tumor biopsy of an ovarian cancer patient (Pat-7), who was initially responsive to TAXOL® treatment but ultimately developed resistance to it following nine courses of monotherapy with TAXOL®. Prior to treatment with TAXOL®, Pat-7 also received numerous other chemotherapeutic agents including carboplatin, cytoxan, VP-16, ifosfamide and altretamine. Tumor biopsy was taken following development of TAXOL® resistance.

[4] = system: Pat-7 human ovarian carcinoma; experiment: In vivo antitumor testing, Pat-7 in nude rats; conditions: Expt. 15, nude rats, paclitaxel at optimal dose
Method: as §6, §7

[5] = system: M5076 murine fibrosarcoma; experiment: In vivo antitumor testing, M5076 murine sarcoma; set-up: species or system mice; conditions: optimal schedule
Method: The murine fibrosarcoma M5076 was also employed.
The human tumors were maintained in Balb/c nu/nu nude mice. M5076 was maintained in C57BL/6 mice. Tumors were propagated as subcutaneous transplants in the appropriate mouse strain using tumor fragments obtained from donor mice.
as §5, §6, §7

[6] = system: LS174T human colon carcinoma; experiment: In vivo antitumor testing, LS174T xenograft; set-up: species or system nude mice; conditions: Expt. R578, iv paclitaxel 36 mg/kg/inj every 2 days for 5 doses
Method: as §5, §6, §7

[7] = system: A2780 human ovarian carcinoma; experiment: In vivo antitumor testing, A2780 in nude rats; conditions: nude rats, IV paclitaxel
Method: as §6, §7
A2780 grown in nude rats was also utilized.

[8] = system: A2780Tax human ovarian carcinoma; conditions: Expt. 12, IV paclitaxel at its MTD
Source text: as §1
as §2, with “(sc). […]” for “(sc).”
(§8) Antitumor activity was evaluated at the maximum tolerated dose (MTD) which is defined as the dose level immediately […] which excessive toxicity (i.e. more than one death) occurred. […] When death occurs, the day of death was recorded. […]
(§9) To estimate tumor cell kill, the tumor volume doubling time was first calculated with the formula: […]

[9] = system: MIP; experiment: In vitro cytotoxicity (MTS assay), MIP; type: cell-based; conditions: MIP (MDR colon tumor line), 72 hour incubation; read-out: IC50
Method: (§10) The in vitro cytotoxicity was assessed in tumor cells by a tetrazolium-based colorimetric assay which takes advantage of the metabolic conversion of MTS (3-(4,5-dimethylthiazol-2-yl)-5-(3-carboxymethoxyphenyl)-2-(4-sulphenyl)-2H-tetrazolium, inner salt) to a reduced form that absorbs light at 492 nm. Cells were seeded 24 hr prior to drug addition. Following a 72 hour incubation at 37° C. with serially diluted compound, MTS, in combination with the electron coupling agent phenazine methosulfate, was added to the cells. The incubation was continued for 3 hours, then the absorbancy of the medium at 492 nm was measured with a spectrophotometer to obtain the number of surviving cells relative to control populations. The results are expressed as median cytotoxic concentrations (IC50 values).

[10] = system: Pat-21 breast carcinoma
Source text: as §2, §3, §4, §8, §9

[11] = system: HCT-116; experiment: In vitro cytotoxicity (MTS assay), HCT-116; type: cell-based; conditions: Homo sapiens; HCT-116, 72 hour incubation
Method: HCT116 human carcinoma cell lines and HCT116/VM46 cells, a MDR variant, were maintained in McCoy's 5A medium (GIBCO) and 10% heat inactivated fetal bovine serum (GIBCO). A2780 human ovarian carcinoma cells and A2780Tax cells obtained from Dr. Antonio Fojo (NCI, Bethesda, Md.) were maintained in IMEM (GIBCO) and 10% fetal bovine serum (GIBCO).
as §10

[12] = system: A2780 human ovarian carcinoma; experiment: In vivo antitumor testing, A2780 in nude mice
Method: as §5, §6, §7

C/C(=C\c1csc(C)n1)[C@@H]1C[C@@H]2O[C@]2(C)CCC[C@H](C)[C@H](O)[C@@H](C)C(=O)C(C)(C)[C@@H](O)CC(=O)O1 [Epothilone B]
Ratio of Polymerization Potency of Analog/Paclitaxel [1]: 0.3

C/C(=C\c1csc(C)n1)[C@@H]1C[C@@H]2O[C@@H]2CCC[C@H](C)[C@H](O)[C@@H](C)C(=O)C(C)(C)[C@@H](O)CC(=O)O1 [Epothilone A]
Ratio of Polymerization Potency of Analog/Paclitaxel [1]: 0.4

CC(=O)O[C@H]1C(=O)[C@@]2(C)[C@H]([C@H](OC(=O)c3ccccc3)[C@]3(O)C[C@H](OC(=O)[C@H](O)[C@@H](NC(=O)c4ccccc4)c4ccccc4)C(C)=C1C3(C)C)[C@]1(OC(C)=O)CO[C@@H]1C[C@@H]2O [Paclitaxel, reference compound]
Paclitaxel LCK ([2]; Expt. 32, IV paclitaxel at its MTD): 0.4 | Paclitaxel LCK ([2]; Expt. 33, IV paclitaxel at its MTD): 0.7 | median LCK of 12 consecutive studies ([2]; paclitaxel at its MTD): 0.35 LCK | Paclitaxel LCK ([3]; Expt. 8, IV paclitaxel at optimal dose (24-36 mg/kg/inj) and schedule): 1.3 | Paclitaxel (IV) LCK ([3]; Expt. 9, IV paclitaxel at optimal dose (24-36 mg/kg) and schedule): 1.2 | Paclitaxel LCK ([3]; Expt. R403, IV paclitaxel at optimal dose (24-36 mg/kg/inj) and schedule): 0.6 | Paclitaxel LCK [4]: 2.2 | Paclitaxel cures/total ([4]; listed as PACLITAXEL): (0/6) | Paclitaxel cures/total ([4]; listed as paclitaxel): no cures | Paclitaxel LCK ([5]; Expt. 159, IV paclitaxel): 0.1 | Paclitaxel LCK ([5]; Expt. 162, IV paclitaxel): 0.5 | Paclitaxel LCK [6]: 2.0 | cures [7]: 5 of 7 | Paclitaxel LCK [8]: 0.8 | pIC50 [9]: < 6.95 | Paclitaxel LCK ([10]; Expt. R667, paclitaxel at MTD of 36 mg/kg/inj): 0.3 | MTD ([10]; paclitaxel, two courses of 3 doses every 4 days): 36 mg/kg/inj | pIC50 [11]: 8.68 | Paclitaxel LCK ([12]; Expt. 89, IV paclitaxel at optimal dose): 2 | Paclitaxel LCK ([12]; Expt. 92, IV paclitaxel at optimal dose): 3.5
